From patent US20260347373A1, “HETEROCYCLIC COMPOUNDS, COMPOSITIONS THEREOF, AND METHODS OF TREATMENT THEREWITH” (BeOne Medicines I GmbH, priority 2023, published 2026)

Tests used:
WT KRAS = WT KRAS (Homo sapiens, UniProt P01116); test: KRAS WT Probe Displacement Assay (TR-FRET, GDP-loaded); type: binding; details: KRAS WT, read-out: KRAS^WT Probe Displacement Assay IC50
From the text: (§1) The synthetic routes of probe 1 and 2, which have been disclosed in PCT/CN2022/070676, are hereby incorporated herein.

KRAS G12D = KRAS G12D (Homo sapiens, UniProt P01116, G12D); test: KRAS G12D Probe Displacement Assay (TR-FRET, GDP-loaded); type: binding; details: KRAS G12D, read-out: KRAS^G12D Probe Displacement Assay IC50
Chain of KRAS G12D (P01116 1-188 isoform P01116-2 G12D): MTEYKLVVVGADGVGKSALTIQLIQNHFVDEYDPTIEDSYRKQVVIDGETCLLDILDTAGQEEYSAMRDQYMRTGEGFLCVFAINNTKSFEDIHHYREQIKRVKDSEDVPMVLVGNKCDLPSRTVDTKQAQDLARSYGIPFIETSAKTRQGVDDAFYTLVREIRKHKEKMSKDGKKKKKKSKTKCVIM
From the text: as §1

Chain of WT KRAS (P01116 1-188 isoform P01116-2): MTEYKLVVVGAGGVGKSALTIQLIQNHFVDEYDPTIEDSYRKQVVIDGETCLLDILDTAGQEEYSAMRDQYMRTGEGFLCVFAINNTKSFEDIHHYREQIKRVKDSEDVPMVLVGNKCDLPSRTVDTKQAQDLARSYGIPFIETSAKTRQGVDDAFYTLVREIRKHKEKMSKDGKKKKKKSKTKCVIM

SMILES	IC50 (WT KRAS) [nM]	IC50 (KRAS G12D) [nM]
Cc1cc(N)cc(-c2nc3c4c(nc(OCC5(CN6CCOC[C@H]6C)CC5)nc4c2F)N2C[C@H]4CC[C@H](N4)[C@H]2CCO3)c1C(F)(F)F [Example 163, 3-((6aR,7S,10R)-1-fluoro-13-((1-(((R)-3-methylmorpholino)methyl)cyclopropyl)methoxy)-5,6,6a,7,8,9,10,11-octahydro-4-oxa-3,11a,12,14,15-pentaaza-7,10-methanocyclohepta[4,5]cycloocta[1,2,3-de]naphthalen-2-yl)-5-methyl-4-(trifluoromethyl)aniline]	3 to 1000	< 0.3
Cc1cc(N)cc(-c2nc3c4c(nc(OCC5(CN6CCOC[C@@H]6C)CC5)nc4c2F)N2C[C@H]4CC[C@H](N4)[C@H]2CCO3)c1C(F)(F)F [Example 164, 3-((6aR,7S,10R)-1-fluoro-13-((1-(((S)-3-methylmorpholino)methyl)cyclopropyl)methoxy)-5,6,6a,7,8,9,10,11-octahydro-4-oxa-3,11a,12,14,15-pentaaza-7,10-methanocyclohepta[4,5]cycloocta[1,2,3-de]naphthalen-2-yl)-5-methyl-4-(trifluoromethyl)aniline]	3 to 1000	< 0.3
Cc1cc(N)cc(-c2nc3c4c(nc(OCC5(CN6CCC(C#N)CC6)CC5)nc4c2F)N2C[C@H]4CC[C@H](N4)[C@H]2CCO3)c1C(F)(F)F [Example 165, 1-((1-((((6aR,7S,10R)-2-(5-amino-3-methyl-2-(trifluoromethyl)phenyl)-1-fluoro-5,6,6a,7,8,9,10,11-octahydro-4-oxa-3,11a,12,14,15-pentaaza-7,10-methanocyclohepta[4,5]cycloocta[1,2,3-de]naphthalen-13-yl)oxy)methyl)cyclopropyl)methyl)piperidine-4-carbonitrile]	0.3 to 3	< 0.3
Cc1cc(N)cc(-c2nc3c4c(nc(OCC5(CN6CCC(C#N)C6)CC5)nc4c2F)N2C[C@H]4CC[C@H](N4)[C@H]2CCO3)c1C(F)(F)F (stereo partly drawn) [Example 166, 1-((1-((((6aR,7S,10R)-2-(5-amino-3-methyl-2-(trifluoromethyl)phenyl)-1-fluoro-5,6,6a,7,8,9,10,11-octahydro-4-oxa-3,11a,12,14,15-pentaaza-7,10-methanocyclohepta[4,5]cycloocta[1,2,3-de]naphthalen-13-yl)oxy)methyl)cyclopropyl)methyl)pyrrolidine-3-carbonitrile]	3 to 1000	< 0.3
Cc1cc(N)cc(-c2nc3c4c(nc(OCC5(CN6CCC(C)(C#N)C6)CC5)nc4c2F)N2C[C@H]4CC[C@H](N4)[C@H]2CCO3)c1C(F)(F)F (stereo partly drawn) [Example 167, 1-((1-((((6aR,7S,10R)-2-(5-amino-3-methyl-2-(trifluoromethyl)phenyl)-1-fluoro-5,6,6a,7,8,9,10,11-octahydro-4-oxa-3,11a,12,14,15-pentaaza-7,10-methanocyclohepta[4,5]cycloocta[1,2,3-de]naphthalen-13-yl)oxy)methyl)cyclopropyl)methyl)-3-methylpyrrolidine-3-carbonitrile]	0.3 to 3	< 0.3
Cc1cc(N)cc(-c2nc3c4c(nc(OCC5(CN6CC7C(C6)C7(F)F)CC5)nc4c2F)N2C[C@H]4CC[C@H](N4)[C@H]2CCO3)c1C(F)(F)F (stereo partly drawn) [Example 168, 3-((6aR,7S,10R)-13-((1-((6,6-difluoro-3-azabicyclo[3.1.0]hexan-3-yl)methyl)cyclopropyl)methoxy)-1-fluoro-5,6,6a,7,8,9,10,11-octahydro-4-oxa-3,11a,12,14,15-pentaaza-7,10-methanocyclohepta[4,5]cycloocta[1,2,3-de]naphthalen-2-yl)-5-methyl-4-(trifluoromethyl)aniline]	3 to 1000	< 0.3
Cc1cc(N)cc(-c2nc3c4c(nc(OCC5(CN6C[C@@H]7[C@@H](F)[C@@H]7C6)CC5)nc4c2F)N2C[C@H]4CC[C@H](N4)[C@H]2CCO3)c1C(F)(F)F [Example 169, 3-((6aR,7S,10R)-1-fluoro-13-((1-(((1R,5S,6S)-6-fluoro-3-azabicyclo[3.1.0]hexan-3-yl)methyl)cyclopropyl)methoxy)-5,6,6a,7,8,9,10,11-octahydro-4-oxa-3,11a,12,14,15-pentaaza-7,10-methanocyclohepta[4,5]cycloocta[1,2,3-de]naphthalen-2-yl)-5-methyl-4-(trifluoromethyl)aniline]	3 to 1000	< 0.3
Cc1cc(N)cc(-c2nc3c4c(nc(OCC5(CN6C[C@@H]7[C@@H](CF)[C@@H]7C6)CC5)nc4c2F)N2C[C@H]4CC[C@H](N4)[C@H]2CCO3)c1C(F)(F)F [Example 170, 3-((6aR,7S,10R)-1-fluoro-13-((1-(((1R,5S,6R)-6-(fluoromethyl)-3-azabicyclo[3.1.0]hexan-3-yl)methyl)cyclopropyl)methoxy)-5,6,6a,7,8,9,10,11-octahydro-4-oxa-3,11a,12,14,15-pentaaza-7,10-methanocyclohepta[4,5]cycloocta[1,2,3-de]naphthalen-2-yl)-5-methyl-4-(trifluoromethyl)aniline]	3 to 1000	< 0.3
Cc1cc(N)cc(-c2nc3c4c(nc(OCC5(CN6C[C@@H]7C[C@@H]7[C@H]6C)CC5)nc4c2F)N2C[C@H]4CC[C@H](N4)[C@H]2CCO3)c1C(F)(F)F [Example 171, 3-((6aR,7S,10R)-1-fluoro-13-((1-(((1S,2R,5R)-2-methyl-3-azabicyclo[3.1.0]hexan-3-yl)methyl)cyclopropyl)methoxy)-5,6,6a,7,8,9,10,11-octahydro-4-oxa-3,11a,12,14,15-pentaaza-7,10-methanocyclohepta[4,5]cycloocta[1,2,3-de]naphthalen-2-yl)-5-methyl-4-(trifluoromethyl)aniline]	3 to 1000	< 0.3
Cc1cc(N)cc(-c2nc3c4c(nc(OCC5(CN6C[C@H]7C[C@H]7[C@H]6C)CC5)nc4c2F)N2C[C@H]4CC[C@H](N4)[C@H]2CCO3)c1C(F)(F)F [Example 172, 3-((6aR,7S,10R)-1-fluoro-13-((1-(((1R,2R,5S)-2-methyl-3-azabicyclo[3.1.0]hexan-3-yl)methyl)cyclopropyl)methoxy)-5,6,6a,7,8,9,10,11-octahydro-4-oxa-3,11a,12,14,15-pentaaza-7,10-methanocyclohepta[4,5]cycloocta[1,2,3-de]naphthalen-2-yl)-5-methyl-4-(trifluoromethyl)aniline]	3 to 1000	< 0.3
Cc1cc(N)cc(-c2nc3c4c(nc(OCC5(CN6CCC7(CC6)CC(F)(F)C7)CC5)nc4c2F)N2C[C@H]4CC[C@H](N4)[C@H]2CCO3)c1C(F)(F)F [Example 173, 3-((6aR,7S,10R)-13-((1-((2,2-difluoro-7-azaspiro[3.5]nonan-7-yl)methyl)cyclopropyl)methoxy)-1-fluoro-5,6,6a,7,8,9,10,11-octahydro-4-oxa-3,11a,12,14,15-pentaaza[7,10]methanocyclohepta[4,5]cycloocta[1,2,3-de]naphthalen-2-yl)-5-methyl-4-(trifluoromethyl)aniline]	3 to 1000	< 0.3
Cc1cc(N)cc(-c2nc3c4c(nc(OCC5(CN6CC7CC6CC7(F)F)CC5)nc4c2F)N2C[C@H]4CC[C@H](N4)[C@H]2CCO3)c1C(F)(F)F [Example 174, 3-((6aR,7S,10R)-13-((1-((5,5-difluoro-2-azabicyclo[2.2.1]heptan-2-yl)methyl)cyclopropyl)methoxy)-1-fluoro-5,6,6a,7,8,9,10,11-octahydro-4-oxa-3,11a,12,14,15-pentaaza-7,10-methanocyclohepta[4,5]cycloocta[1,2,3-de]naphthalen-2-yl)-5-methyl-4-(trifluoromethyl)aniline]	3 to 1000	< 0.3
Cc1cc(N)cc(-c2nc3c4c(nc(OCC5(CN6[C@@H]7CC[C@H]6CC(F)(F)C7)CC5)nc4c2F)N2C[C@H]4CC[C@H](N4)[C@H]2CCO3)c1C(F)(F)F [Example 175, 3-((6aR,7S,10R)-13-((1-(((1R,5S)-3,3-difluoro-8-azabicyclo[3.2.1]octan-8-yl)methyl)cyclopropyl)methoxy)-1-fluoro-5,6,6a,7,8,9,10,11-octahydro-4-oxa-3,11a,12,14,15-pentaaza-7,10-methanocyclohepta[4,5]cycloocta[1,2,3-de]naphthalen-2-yl)-5-methyl-4-(trifluoromethyl)aniline]	3 to 1000	< 0.3
Cc1cc(N)cc(-c2nc3c4c(nc(OCC5(CN6CC7(C6)CC(F)(F)C7)CC5)nc4c2F)N2C[C@H]4CC[C@H](N4)[C@H]2CCO3)c1C(F)(F)F [Example 176, 3-((6aR,7S,10R)-13-((1-((6,6-difluoro-2-azaspiro[3.3]heptan-2-yl)methyl)cyclopropyl)methoxy)-1-fluoro-5,6,6a,7,8,9,10,11-octahydro-4-oxa-3,11a,12,14,15-pentaaza[7,10]methanocyclohepta[4,5]cycloocta[1,2,3-de]naphthalen-2-yl)-5-methyl-4-(trifluoromethyl)aniline]	3 to 1000	< 0.3
Cc1cc(N)cc(-c2nc3c4c(nc(OCC5(CN6CCC(OC(F)(F)F)CC6)CC5)nc4c2F)N2C[C@H]4CC[C@H](N4)[C@H]2CCO3)c1C(F)(F)F [Example 177, 3-((6aR,7S,10R)-1-fluoro-13-((1-((4-(trifluoromethoxy)piperidin-1-yl)methyl)cyclopropyl)methoxy)-5,6,6a,7,8,9,10,11-octahydro-4-oxa-3,11a,12,14,15-pentaaza-7,10-methanocyclohepta[4,5]cycloocta[1,2,3-de]naphthalen-2-yl)-5-methyl-4-(trifluoromethyl)aniline]	0.3 to 3	< 0.3
Cc1cc(N)cc(-c2nc3c4c(nc(OCC5(CN6CC=C(F)CC6)CC5)nc4c2F)N2C[C@H]4CC[C@H](N4)[C@H]2CCO3)c1C(F)(F)F [Example 178, 3-((6aR,7S,10R)-1-fluoro-13-((1-((4-fluoro-3,6-dihydropyridin-1(2H)-yl)methyl)cyclopropyl)methoxy)-5,6,6a,7,8,9,10,11-octahydro-4-oxa-3,11a,12,14,15-pentaaza-7,10-methanocyclohepta[4,5]cycloocta[1,2,3-de]naphthalen-2-yl)-5-methyl-4-(trifluoromethyl)aniline]	3 to 1000	< 0.3
